Source: ChEMBL document CHEMBL4715709, “Synthesis and evaluation of anticonvulsant properties of new N-Mannich bases derived from 3-(1-phenylethyl)- and 3-benzyl-pyrrolidine-2,5-dione” (Bioorg Med Chem Lett, 2016)
Calls of active or inactive are those of the source. The rule behind the calls is not given here.

Assays:
[1] = Neurotoxicity in ip dosed mouse assessed as minimum dose required for induction of motor impairment measured after 0.5 hrs by rotarod test; assay type: toxicity, organism-based; details: in vivo
Mus musculus [2] = test: Anticonvulsant activity in ip dosed mouse assessed as protection against ScPTZ-induced epilepsy measured after 4 hrs by subcutaneous pentylenetetrazole test; assay type: functional
Mus musculus [3] = test: Anticonvulsant activity in mouse assessed as protection against tonic-clonic seizures at 300 mg/kg, ip measured after 0.5 hrs by maximal electroshock seizure test; assay type: functional, organism-based
[4] = Neurotoxicity in mouse assessed as induction of motor impairment at 300 mg/kg, ip measured after 4 hrs by rotarod test; assay type: toxicity, organism-based; details: in vivo
Mus musculus [5] = test: Anticonvulsant activity in mouse assessed as protection against tonic-clonic seizures at 300 mg/kg, ip measured after 4 hrs by maximal electroshock seizure test; assay type: functional, organism-based
Mus musculus [6] = test: Anticonvulsant activity in ip dosed mouse assessed as minimum dose required for protection against ScPTZ-induced epilepsy measured after 0.5 hrs by subcutaneous pentylenetetrazole test; assay type: functional
Mus musculus [7] = test: Anticonvulsant activity in mouse assessed as protection against ScPTZ-induced epilepsy at 300 mg/kg, ip measured after 4 hrs by subcutaneous pentylenetetrazole test; assay type: functional, organism-based
[8] = Protection index, ratio of TD50 for neurotoxicity in ip dosed mouse to ED50 for anticonvulsant activity in ip dosed mouse measured after 4 hrs by subcutaneous pentylenetetrazole test; assay type: toxicity, organism-based; details: in vivo, read-out: PI
[9] = Neurotoxicity activity in ip dosed mouse assessed as induction of motor impairment by rotarod test; assay type: toxicity, organism-based; details: in vivo
Mus musculus [10] = test: Anticonvulsant activity in ip dosed mouse assessed as protection against ScPTZ-induced epilepsy measured after 0.5 hrs by subcutaneous pentylenetetrazole test; assay type: functional
Mus musculus [11] = test: Anti-convulsant activity in ip dosed mouse assessed as protection against psychomotor seizures measured after 0.5 hrs by 6 Hz limbic seizure test; assay type: functional
Mus musculus [12] = test: Anticonvulsant activity in ip dosed mouse assessed as minimum dose required for protection against tonic-clonic seizures measured after 0.5 hrs by maximal electroshock seizure test; assay type: functional
Mus musculus [13] = test: Anti-convulsant activity in mouse assessed as protection of animals against psychomotor seizures at 100 mg/kg, ip measured after 0.5 hrs by 6 Hz limbic seizure test; assay type: functional
[14] = Protection index, ratio of TD50 for neurotoxicity in ip dosed mouse to ED50 for anticonvulsant activity in ip dosed mouse measured after 0.5 hrs by subcutaneous pentylenetetrazole test; assay type: toxicity, organism-based; details: in vivo, read-out: PI
Mus musculus [15] = test: Anti-convulsant activity in mouse assessed as protection of animals against psychomotor seizures at 100 mg/kg, ip measured after 4 hrs by 6 Hz limbic seizure test; assay type: functional
[16] = Protection index, ratio of TD50 for neurotoxicity in ip dosed mouse to ED50 for anticonvulsant activity in ip dosed mouse measured after 0.5 hrs by 6 Hz limbic seizure test; assay type: toxicity, organism-based; details: in vivo, read-out: PI
[17] = Neurotoxicity in mouse assessed as induction of motor impairment at 300 mg/kg, ip measured after 0.5 hrs by rotarod test; assay type: toxicity, organism-based; details: in vivo
Mus musculus [18] = test: Anticonvulsant activity in ip dosed mouse assessed as minimum dose required for protection against ScPTZ-induced epilepsy measured after 4 hrs by subcutaneous pentylenetetrazole test; assay type: functional
Mus musculus [19] = test: Anti-convulsant activity in ip dosed mouse assessed as protection against psychomotor seizures measured after 0.25 hrs by 6 Hz limbic seizure test; assay type: functional
Mus musculus [20] = test: Anticonvulsant activity in ip dosed mouse assessed as protection against ScPTZ-induced epilepsy measured after 0.25 hrs by subcutaneous pentylenetetrazole test; assay type: functional
Mus musculus [21] = test: Anticonvulsant activity in mouse assessed as protection against ScPTZ-induced epilepsy at 300 mg/kg, ip measured after 0.5 hrs by subcutaneous pentylenetetrazole test; assay type: functional, organism-based
Mus musculus [22] = test: Anticonvulsant activity in ip dosed mouse assessed as minimum dose required for protection against tonic-clonic seizures measured after 4 hrs by maximal electroshock seizure test; assay type: functional
[23] = Neurotoxicity in ip dosed mouse assessed as minimum dose required for induction of motor impairment measured after 4 hrs by rotarod test; assay type: toxicity, organism-based; details: in vivo
Homo sapiens [24] = species: Homo sapiens; test: Inhibition of Sodium channel site 2 (unknown origin) at 100 uM
Homo sapiens [25] = species: Homo sapiens; test: Inhibition of GABAA receptor (unknown origin) at 100 uM
Homo sapiens [26] = species: Homo sapiens; test: Inhibition of NMDA receptor (unknown origin) at 100 uM
Homo sapiens [27] = species: Homo sapiens; test: Inhibition of L-type calcium channel (unknown origin) at 100 uM

SMILES	MTD50 [1] [mg/kg]	Activity (Mus musculus [3])	Activity [4]	Activity (Mus musculus [5])	MED=>50 (Mus musculus [6]) [mg/kg]	Activity (Mus musculus [7])	TD50 [9] [mg/kg]	ED50 (Mus musculus [11]) [mg/kg]	minimum effective dose (Mus musculus [12]) [mg/kg]	Activity (Mus musculus [13]) [%]	Activity (Mus musculus [15]) [%]	selectivity ratio at 0.5 h [16]	MED=>50 (Mus musculus [18]) [mg/kg]	Activity (Mus musculus [21])	MED=>50 (Mus musculus [22]) [mg/kg]	also measured
COc1ccccc1N1CCN(CN2C(=O)CC(C(C)c3ccccc3)C2=O)CC1 (stereo unspecified)	300	inactive	Non-Toxic	inactive	30	inactive	128	–	–	–	–	–	–	–	–	ED50 (Mus musculus [2]): 48 mg/kg; selectivity ratio at 4 h [8]: 2.66
CCCC(CCC)C(=O)O [VALPROIC ACID]	–	–	–	–	–	–	–	131	–	–	–	–	–	–	–	ED50 (Mus musculus [10]): 239 mg/kg
CN1CCN(CN2C(=O)CC(Cc3ccccc3)C2=O)CC1.Cl (racemic)	–	–	Non-Toxic	inactive	100	–	324	65	300	66	0	5	300	–	–	selectivity ratio at 0.5 h [14]: 3.41; ED50 (Mus musculus [10]): 95 mg/kg; Activity [17]: Non-Toxic
CCC1(C)CC(=O)NC1=O (stereo unspecified) [ETHOSUXIMIDE]	–	–	–	–	–	–	–	–	–	–	–	–	–	–	–	ED50 (Mus musculus [19]): > 200 mg/kg; ED50 (Mus musculus [20]): 140 mg/kg
CC(c1ccccc1)C1CC(=O)N(CN2CCN(c3cccc(C(F)(F)F)c3)CC2)C1=O (racemic)	–	inactive	Non-Toxic	–	–	inactive	–	–	–	–	–	–	–	inactive	300	Activity [17]: Non-Toxic
Cl.O=C1CC(Cc2ccccc2)C(=O)N1CN1CCN(CCO)CC1 (racemic)	300	–	Non-Toxic	inactive	–	–	344	71	300	100	0	4.85	300	inactive	–	–
CC(c1ccccc1)C1CC(=O)N(CN2CCN(CCO)CC2)C1=O.Cl (racemic)	300	–	Non-Toxic	inactive	300	–	290	30	300	100	0	9.66	300	–	–	–
O=C1CC(Cc2ccccc2)C(=O)N1CN1CCN(c2ccc(Cl)c(Cl)c2)CC1 (racemic)	–	inactive	–	–	300	–	246	–	–	0	0	–	100	–	300	MTD50 [23]: 300 mg/kg; ED50 (Mus musculus [2]): 106 mg/kg; Activity [17]: Non-Toxic; selectivity ratio at 4 h [8]: 2.32
O=C1CC(Cc2ccccc2)C(=O)N1CN1CCN(c2ncccn2)CC1 (racemic)	300	inactive	–	inactive	–	–	–	–	–	–	–	–	100	inactive	–	MTD50 [23]: 300 mg/kg
CC(c1ccccc1)C1CC(=O)N(CN2CCC(Cc3ccccc3)CC2)C1=O (racemic)	–	inactive	Non-Toxic	–	–	inactive	–	–	–	–	–	–	–	inactive	300	Activity [17]: Non-Toxic
CC(c1ccccc1)C1CC(=O)N(CN2CCOCC2)C1=O (racemic)	300	–	Non-Toxic	–	–	inactive	–	–	300	–	–	–	–	inactive	300	–
O=C1CC(Cc2ccccc2)C(=O)N1CN1CCN(c2cccc(C(F)(F)F)c2)CC1 (racemic)	300	–	Non-Toxic	–	–	inactive	–	–	300	–	–	–	–	inactive	300	–
COC[C@@H](NC(C)=O)C(=O)NCc1ccccc1 [LACOSAMIDE]	–	–	–	–	–	–	–	6	–	–	–	5.66	–	–	–	–
CC(c1ccccc1)C1CC(=O)N(CN2CCN(C3CCCCC3)CC2)C1=O (racemic)	300	inactive	Non-Toxic	inactive	100	inactive	196	75	–	100	0	2.61	–	–	–	selectivity ratio at 0.5 h [14]: 1.94; ED50 (Mus musculus [10]): 101 mg/kg
CC(c1ccccc1)C1CC(=O)N(CN2CCN(C)CC2)C1=O.Cl (racemic)	300	–	Non-Toxic	inactive	30	–	229	36	300	100	0	6.36	300	–	–	inhibition (Homo sapiens [24]): < 50%; inhibition (Homo sapiens [25]): < 50%; selectivity ratio at 0.5 h [14]: 5.87; inhibition (Homo sapiens [26]): < 50%; ED50 (Mus musculus [10]): 39 mg/kg; inhibition (Homo sapiens [27]): < 50%
O=C1CC(Cc2ccccc2)C(=O)N1CN1CCN(c2ccc(F)cc2)CC1 (racemic)	300	–	–	–	–	inactive	–	–	300	–	–	–	–	inactive	300	MTD50 [23]: 300 mg/kg
O=C1CC(Cc2ccccc2)C(=O)N1CN1CCN(c2ccc(Cl)cc2)CC1 (racemic)	–	inactive	–	inactive	–	inactive	–	–	–	–	–	–	–	inactive	–	MTD50 [23]: 300 mg/kg; Activity [17]: Non-Toxic
O=C1CC(Cc2ccccc2)C(=O)N1CN1CCOCC1 (racemic)	300	–	Non-Toxic	–	100	–	179	53	300	100	0	3.37	100	–	300	selectivity ratio at 0.5 h [14]: 2.05; ED50 (Mus musculus [10]): 87 mg/kg
